Tests used:
Assay in all cases: relative viability (nuclei count vs DMSO), 5 days (fraction); higher = more cells survive
Wnt-C59 + Pictilisib = compound: CC1=NC=CC(=C1)C2=CC=C(C=C2)CC(=O)NC3=CC=C(C=C3)C4=CN=CC=C4 [Wnt-C59] + CS(=O)(=O)N1CCN(Cc2cc3nc(-c4cccc5[nH]ncc45)nc(N4CCOCC4)c3s2)CC1 [Pictilisib] (partner 1 µM)
Procedure, shortened: (§1)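 Medians of duplicate plates are given as relative viability. That measure is the nuclei count in treated wells divided by the count in vehicle wells. Counts were taken on 4× images of lung cancer cell lines in 1536-well plates, 5 days after pin-tool dosing the day after seeding with one drug alone or a fixed anchor-drug dose plus five library-drug doses (not always all listed) in √10 steps.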

Lapatinib + Trametinib = compound: CS(=O)(=O)CCNCc1ccc(-c2ccc3ncnc(Nc4ccc(OCc5cccc(F)c5)c(Cl)c4)c3c2)o1 [Lapatinib] + CC(=O)Nc1cccc(-n2c(=O)n(C3CC3)c(=O)c3c(Nc4ccc(I)cc4F)n(C)c(=O)c(C)c32)c1 [Trametinib] (partner 0.02 µM)
Procedure, shortened: as §1

Lapatinib + Dasatinib = compound: CS(=O)(=O)CCNCc1ccc(-c2ccc3ncnc(Nc4ccc(OCc5cccc(F)c5)c(Cl)c4)c3c2)o1 [Lapatinib] + Cc1nc(Nc2ncc(C(=O)Nc3c(C)cccc3Cl)s2)cc(N2CCN(CCO)CC2)n1 [Dasatinib] (partner 0.075 µM)
Procedure, shortened: as §1

Lapatinib + Olaparib = compound: CS(=O)(=O)CCNCc1ccc(-c2ccc3ncnc(Nc4ccc(OCc5cccc(F)c5)c(Cl)c4)c3c2)o1 [Lapatinib] + O=C(c1cc(Cc2n[nH]c(=O)c3ccccc23)ccc1F)N1CCN(C(=O)C2CC2)CC1 [Olaparib] (partner 8 µM)
Procedure, shortened: as §1

Row | Cell Line | relative viability (Wnt-C59 + Pictilisib; first compound 0.001 µM) | relative viability (Wnt-C59 + Pictilisib; first compound 0.01 µM) | relative viability (Wnt-C59 + Pictilisib; first compound 0.03162 µM) | relative viability (Wnt-C59 + Pictilisib; first compound 0.1 µM) | relative viability (Lapatinib + Trametinib; first compound 0.02 µM) | relative viability (Lapatinib + Trametinib; first compound 0.06325 µM) | relative viability (Lapatinib + Trametinib; first compound 0.2 µM) | relative viability (Lapatinib + Trametinib; first compound 0.6325 µM) | relative viability (Lapatinib + Trametinib; first compound 2 µM) | relative viability (Lapatinib + Dasatinib; first compound 0.02 µM) | relative viability (Lapatinib + Dasatinib; first compound 0.06325 µM) | relative viability (Lapatinib + Dasatinib; first compound 0.2 µM) | relative viability (Lapatinib + Dasatinib; first compound 0.6325 µM) | relative viability (Lapatinib + Dasatinib; first compound 2 µM) | relative viability (Lapatinib + Olaparib; first compound 0.02 µM) | relative viability (Lapatinib + Olaparib; first compound 0.06325 µM) | relative viability (Lapatinib + Olaparib; first compound 0.2 µM) | relative viability (Lapatinib + Olaparib; first compound 0.6325 µM) | relative viability (Lapatinib + Olaparib; first compound 2 µM)
1 | HCC-827 | 0.83 | 1.07 | 1.15 | 0.971 | 0.479 | 0.487 | 0.536 | 0.517 | 0.408 | 0.334 | 0.313 | 0.281 | 0.377 | 0.155 | 0.591 | 0.656 | 0.533 | 0.678 | 0.549
2 | HOP-62 | 0.63 | 0.76 | 0.855 | 0.693 |  | 0.378 | 0.343 | 0.472 | 0.293 | 0.508 | 0.633 | 0.615 | 0.69 | 0.566 |  | 0.4 | 0.59 | 0.328 | 0.369
3 | IA-LM | 0.271 | 0.251 | 0.337 | 0.375 |  |  |  |  |  |  |  |  |  |  | 0.789 | 0.855 | 0.778 | 0.886 | 0.843
4 | LC-2-ad | 0.435 | 0.43 | 0.469 | 0.472 |  | 0.804 | 0.906 | 0.864 | 0.837 |  | 0.382 | 0.687 | 0.514 | 0.465 |  | 0.796 | 0.704 | 0.675 | 0.694
5 | LCLC-97TM1 | 0.23 | 0.231 | 0.211 | 0.187 |  | 0.131 | 0.205 | 0.181 | 0.137 |  |  | 0.854 | 0.91 | 0.875 |  | 0.342 | 0.417 | 0.387 | 0.345
6 | LCLC-103H | 0.663 | 0.62 | 0.634 | 0.651 | 0.659 | 0.641 | 0.664 | 0.668 | 0.631 | 0.312 | 0.378 | 0.455 | 0.511 | 0.416 | 0.786 | 0.664 | 0.762 | 0.719 | 0.762
7 | LK-2 | 0.667 | 0.653 | 0.557 | 0.573 | 0.858 |  | 0.782 | 0.663 | 0.832 |  |  | 0.264 | 0.283 | 0.35 | 0.598 |  | 0.78 | 0.702 | 0.859
8 | LOU-NH91 | 0.541 | 0.577 | 0.508 | 0.565 | 0.787 | 0.684 | 0.726 | 0.709 | 0.665 | 0.365 | 0.398 | 0.431 | 0.46 | 0.404 | 0.921 | 0.748 | 0.836 | 0.696 | 0.617
9 | LU99A | 0.309 | 0.317 | 0.316 | 0.321 | 0.532 | 0.453 | 0.448 | 0.511 | 0.536 | 0.492 | 0.408 | 0.453 | 0.587 | 0.475 | 0.302 | 0.282 | 0.276 | 0.237 | 0.234
10 | LXF-289 | 0.767 | 0.774 | 0.853 | 0.794 | 0.713 | 0.689 | 0.68 | 0.652 | 0.631 | 0.0714 | 0.116 | 0.224 | 0.273 | 0.179 | 1.06 | 0.97 | 1.04 | 1.04 | 0.998
11 | NCI-H23 | 0.426 | 0.454 | 0.467 | 0.423 |  |  | 0.368 | 0.467 | 0.398 |  |  | 0.688 | 0.762 | 0.738 |  |  | 0.266 | 0.296 | 0.2
12 | NCI-H322M | 0.517 | 0.426 | 0.491 | 0.414 | 0.493 | 0.435 | 0.492 | 0.508 | 0.377 | 0.287 | 0.238 | 0.246 | 0.226 | 0.225 | 0.756 | 0.711 | 0.836 | 0.818 | 0.763
13 | NCI-H358 | 0.311 | 0.345 | 0.314 | 0.354 | 0.135 | 0.108 | 0.122 | 0.123 | 0.121 | 0.138 | 0.0919 | 0.127 | 0.0982 | 0.14 | 0.535 | 0.476 | 0.385 | 0.377 | 0.205
14 | NCI-H441 | 0.557 | 0.428 | 0.592 | 0.573 | 0.429 |  | 0.398 | 0.392 | 0.417 |  | 0.263 | 0.562 | 0.557 | 0.592 | 0.689 |  | 0.48 | 0.486 | 0.559
15 | NCI-H522 |  |  |  |  |  | 0.636 | 0.688 | 0.809 | 0.655 |  | 0.907 | 0.901 | 0.67 | 0.787 |  | 0.467 | 0.575 | 0.572 | 0.518
16 | NCI-H1299 | 0.739 | 0.476 | 0.756 | 0.793 |  |  |  |  |  |  |  |  |  |  | 0.952 | 0.99 | 0.93 | 0.967 | 0.965
17 | NCI-H1563 | 0.604 | 0.665 | 0.721 | 0.646 |  |  |  |  |  | 0.505 | 0.405 | 0.425 | 0.491 | 0.435 |  |  |  |  | 
18 | NCI-H1623 |  |  |  |  |  |  |  |  |  | 0.541 | 0.491 |  | 0.578 | 0.21 |  |  |  |  | 
19 | NCI-H1648 |  |  |  |  |  | 0.307 | 0.256 | 0.339 | 0.233 |  |  |  |  |  |  | 0.466 | 0.588 | 0.769 | 0.28
20 | NCI-H1703 | 0.22 | 0.218 | 0.324 | 0.273 |  |  |  |  |  |  |  |  |  |  | 0.312 | 0.489 | 0.392 | 0.595 | 0.383
21 | NCI-H2342 |  |  |  |  | 0.706 | 0.722 | 0.65 | 0.676 | 0.629 | 0.262 | 0.293 | 0.301 | 0.303 | 0.263 | 0.406 | 0.405 | 0.398 | 0.433 | 0.348
22 | SW 900 |  |  |  |  |  | 0.829 | 0.785 | 0.771 | 0.689 |  | 0.435 | 0.479 | 0.595 | 0.373 |  | 0.78 | 0.574 | 0.864 | 0.56

Reference: the supplement of paper PMC10307832
